Assay results published in paper PMC6226112 (Clinical and Translational Science, 2018).
Read-outs that look alike come from different tables or passages of the source.

Key:
[1] = GZR alone 200 mg once daily, ref historical database, cited from earlier work
[2] = steady state; cited from earlier work
[3] = human, in vivo
clinical [4] = conditions: human, in vivo
[5] = Trial 2 safety and tolerability
[6] = Trial 1 safety and tolerability; conditions: for Number of AEs considered related to the drug(s): 73 drug-related of 78 AEs
[7] = both, human, in vivo
clinical [8] = conditions: both, human, in vivo

Compound: C=C[C@@H]1C[C@]1(NC(=O)[C@@H]1C[C@@H]2CN1C(=O)[C@H](C(C)(C)C)NC(=O)O[C@@H]1C[C@H]1CCCCCc1nc3ccc(OC)cc3nc1O2)C(=O)NS(=O)(=O)C1CC1 [GZR, grazoprevir]
- C24, GM [1]: 13.9 nM
- Cmax ([1]; read-out: Cmax, GM): 583 nM
- Exposure in HCV-infected people compared with healthy people [2]: ~2 fold
- C24, GM [3]: 13.5 nM
- GMRs for AUC0-24, Cmax, and C24 (range over the three parameters) [3]: 0.80–0.97
- AUC(0-t) (clinical [4]): 2.13 µM·h
- Cmax (clinical [4]): 473 nM
- Tmax (clinical [4]): 4 h
- Tolerability of coadministration with BUP/NAL [5]: generally well tolerated

Compound: O=C1CC[C@@]2(O)[C@H]3Cc4ccc(O)c5c4[C@@]2(CCN3CC2CC2)[C@H]1O5 [NTX, naltrexone]
- Number of AEs considered related to the drug(s) [6]: three

Compound: COC(=O)N[C@H](C(=O)N1CCC[C@H]1c1nc(-c2ccc3c(c2)O[C@@H](c2ccccc2)n2c-3cc3cc(-c4c[nH]c([C@@H]5CCCN5C(=O)[C@@H](NC(=O)OC)C(C)C)n4)ccc32)c[nH]1)C(C)C [EBR, elbasvir]
- GMRs for AUC0-∞, Cmax, and C24 (range over the three parameters) [7]: 1.13–1.22
- AUC(0-inf) (clinical [8]): 2.55 µM·h
- Tmax (clinical [8]): 3.01 h
- AUC(0-inf) (clinical [8]; po, 50 mg): 2.08 µM·h
- Tolerability of coadministration with BUP/NAL [6]: generally well tolerated
- Number of AEs considered related to the drug(s) [6]: 4

Compound: C=CCN1CC[C@]23c4c5ccc(O)c4O[C@H]2C(=O)CC[C@@]3(O)[C@H]1C5 [NAL, naloxone]
- AUC(0-inf) (clinical [8]): 0.416 ng·h/mL
- Cmax (clinical [8]): 0.139 ng/mL
- Tmax (clinical [8]): 0.98 h
- AUC(0-inf) (clinical [8]; 2 mg): 0.47 ng·h/mL
- Cmax (clinical [8]; 2 mg): 0.165 ng/mL
- Apparent terminal T½, GM [3]: 5.20 h
- Cmax/D, GM [3]: 0.149 ng/mL/mg
- Tmax (clinical [4]): 1.24 h
